# Results as given in PubChem BioAssay (NCI).
#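 In this assay, cells in 96-well plates receive the compound at five concentrations for 48 hours. Endpoints are linearly interpolated between the surrounding concentrations. GI50 is the concentration that inhibits growth by half. TGI is the concentration that stops growth completely.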
# Assays:
# Test in all cases: DTP human tumour cell line panel, 48 h
# 786-0 renal = test system: 786-0 renal
# A498 renal = test system: A498 renal
# A549 NSCLC = test system: A549 NSCLC
# ACHN renal = test system: ACHN renal
# BT-549 breast = test system: BT-549 breast
# CAKI-1 renal = test system: CAKI-1 renal
# CCRF-CEM leukemia = test system: CCRF-CEM leukemia
# COLO 205 colon = test system: COLO 205 colon
# DU-145 prostate = test system: DU-145 prostate
# EKVX NSCLC = test system: EKVX NSCLC
# HCC-2998 colon = test system: HCC-2998 colon
# HCT-116 colon = test system: HCT-116 colon
# HCT-15 colon = test system: HCT-15 colon
# HL-60(TB) leukemia = test system: HL-60(TB) leukemia
# HOP-62 NSCLC = test system: HOP-62 NSCLC
# HOP-92 NSCLC = test system: HOP-92 NSCLC
# HS 578T breast = test system: HS 578T breast
# HT29 colon = test system: HT29 colon
# K-562 leukemia = test system: K-562 leukemia
# KM12 colon = test system: KM12 colon
# LOX IMVI melanoma = test system: LOX IMVI melanoma
# M14 melanoma = test system: M14 melanoma
# MALME-3M melanoma = test system: MALME-3M melanoma
# MCF7 breast = test system: MCF7 breast
# MDA-MB-231 breast = test system: MDA-MB-231 breast
# MDA-MB-435 = test system: MDA-MB-435
# MOLT-4 leukemia = test system: MOLT-4 leukemia
# NCI-H226 lung = test system: NCI-H226 lung
# NCI-H23 lung = test system: NCI-H23 lung
# NCI-H460 lung = test system: NCI-H460 lung
# NCI-H522 lung = test system: NCI-H522 lung
# NCI/ADR-RES ovarian = test system: NCI/ADR-RES ovarian
# OVCAR-3 ovarian = test system: OVCAR-3 ovarian
# OVCAR-4 ovarian = test system: OVCAR-4 ovarian
# OVCAR-5 ovarian = test system: OVCAR-5 ovarian
# OVCAR-8 ovarian = test system: OVCAR-8 ovarian
# PC-3 prostate = test system: PC-3 prostate
# RPMI-8226 leukemia = test system: RPMI-8226 leukemia
# RXF 393 renal = test system: RXF 393 renal
# SF-268 CNS = test system: SF-268 CNS
# SF-295 CNS = test system: SF-295 CNS
# SF-539 CNS = test system: SF-539 CNS
# SK-MEL-2 melanoma = test system: SK-MEL-2 melanoma
# SK-MEL-28 melanoma = test system: SK-MEL-28 melanoma
# SK-MEL-5 melanoma = test system: SK-MEL-5 melanoma
# SK-OV-3 ovarian = test system: SK-OV-3 ovarian
# SN12C renal = test system: SN12C renal
# SNB-19 CNS = test system: SNB-19 CNS
# SNB-75 CNS = test system: SNB-75 CNS
# SR leukemia = test system: SR leukemia
# SW-620 colon = test system: SW-620 colon
# T-47D breast = test system: T-47D breast
# TK-10 renal = test system: TK-10 renal
# U251 CNS = test system: U251 CNS
# UACC-257 melanoma = test system: UACC-257 melanoma
# UACC-62 melanoma = test system: UACC-62 melanoma
# UO-31 renal = test system: UO-31 renal
structure (smiles),measurement,setting,value
O=C(N/N=C\c1c(O)ccc2ccccc12)C1CC1,GI50,786-0 renal,5.16 µM
same,TGI,786-0 renal,> 100 µM
same,GI50,A498 renal,16.8 µM
same,TGI,A498 renal,52 µM
same,GI50,A549 NSCLC,7.13 µM
same,TGI,A549 NSCLC,> 100 µM
same,GI50,ACHN renal,2.82 µM
same,TGI,ACHN renal,> 100 µM
same,GI50,BT-549 breast,5.78 µM
same,TGI,BT-549 breast,88.7 µM
same,GI50,CAKI-1 renal,1.6 µM
same,TGI,CAKI-1 renal,8.22 µM
same,GI50,CCRF-CEM leukemia,0.889 µM
same,TGI,CCRF-CEM leukemia,> 100 µM
same,GI50,COLO 205 colon,11.2 µM
same,TGI,COLO 205 colon,93.8 µM
same,GI50,DU-145 prostate,13.4 µM
same,TGI,DU-145 prostate,> 100 µM
same,GI50,EKVX NSCLC,2.91 µM
same,TGI,EKVX NSCLC,> 100 µM
same,GI50,HCC-2998 colon,9.8 µM
same,TGI,HCC-2998 colon,> 100 µM
same,GI50,HCT-116 colon,3.04 µM
same,TGI,HCT-116 colon,> 100 µM
same,GI50,HCT-15 colon,1.22 µM
same,TGI,HCT-15 colon,> 100 µM
same,GI50,HL-60(TB) leukemia,1.53 µM
same,TGI,HL-60(TB) leukemia,> 100 µM
same,GI50,HOP-62 NSCLC,4.34 µM
same,TGI,HOP-62 NSCLC,91.4 µM
same,GI50,HOP-92 NSCLC,16.7 µM
same,TGI,HOP-92 NSCLC,> 100 µM
same,GI50,HS 578T breast,17.2 µM
same,TGI,HS 578T breast,> 100 µM
same,GI50,HT29 colon,13 µM
same,TGI,HT29 colon,> 100 µM
same,GI50,K-562 leukemia,3.64 µM
same,TGI,K-562 leukemia,> 100 µM
same,GI50,KM12 colon,6.12 µM
same,TGI,KM12 colon,> 100 µM
same,GI50,LOX IMVI melanoma,1.79 µM
same,TGI,LOX IMVI melanoma,> 100 µM
same,GI50,M14 melanoma,3.76 µM
same,TGI,M14 melanoma,56 µM
same,GI50,MALME-3M melanoma,7.76 µM
same,TGI,MALME-3M melanoma,54 µM
same,GI50,MCF7 breast,3.41 µM
same,TGI,MCF7 breast,> 100 µM
same,GI50,MDA-MB-231 breast,7.5 µM
same,TGI,MDA-MB-231 breast,> 100 µM
same,GI50,MDA-MB-435,11.6 µM
same,TGI,MDA-MB-435,> 100 µM
same,GI50,MOLT-4 leukemia,3.17 µM
same,TGI,MOLT-4 leukemia,> 100 µM
same,GI50,NCI-H226 lung,13.1 µM
same,TGI,NCI-H226 lung,84.2 µM
same,GI50,NCI-H23 lung,5.94 µM
same,TGI,NCI-H23 lung,> 100 µM
same,GI50,NCI-H460 lung,3 µM
same,TGI,NCI-H460 lung,> 100 µM
same,GI50,NCI-H522 lung,5.75 µM
same,TGI,NCI-H522 lung,> 100 µM
same,GI50,NCI/ADR-RES ovarian,2.76 µM
same,TGI,NCI/ADR-RES ovarian,> 100 µM
same,GI50,OVCAR-3 ovarian,2.2 µM
same,TGI,OVCAR-3 ovarian,46 µM
same,GI50,OVCAR-4 ovarian,2.6 µM
same,TGI,OVCAR-4 ovarian,> 100 µM
same,GI50,OVCAR-5 ovarian,19.6 µM
same,TGI,OVCAR-5 ovarian,> 100 µM
same,GI50,OVCAR-8 ovarian,3.12 µM
same,TGI,OVCAR-8 ovarian,> 100 µM
same,GI50,PC-3 prostate,11.7 µM
same,TGI,PC-3 prostate,> 100 µM
same,GI50,RPMI-8226 leukemia,7.91 µM
same,TGI,RPMI-8226 leukemia,> 100 µM
same,GI50,RXF 393 renal,8.91 µM
same,TGI,RXF 393 renal,> 100 µM
same,GI50,SF-268 CNS,4.1 µM
same,TGI,SF-268 CNS,> 100 µM
same,GI50,SF-295 CNS,2.26 µM
same,TGI,SF-295 CNS,8.23 µM
same,GI50,SF-539 CNS,4.48 µM
same,TGI,SF-539 CNS,> 100 µM
same,GI50,SK-MEL-2 melanoma,18.9 µM
same,TGI,SK-MEL-2 melanoma,> 100 µM
same,GI50,SK-MEL-28 melanoma,17.8 µM
same,TGI,SK-MEL-28 melanoma,> 100 µM
same,GI50,SK-MEL-5 melanoma,3.81 µM
same,TGI,SK-MEL-5 melanoma,> 100 µM
same,GI50,SK-OV-3 ovarian,3.36 µM
same,TGI,SK-OV-3 ovarian,67.2 µM
same,GI50,SN12C renal,11.7 µM
same,TGI,SN12C renal,> 100 µM
same,GI50,SNB-19 CNS,12.9 µM
same,TGI,SNB-19 CNS,> 100 µM
same,GI50,SNB-75 CNS,6.68 µM
same,TGI,SNB-75 CNS,91.1 µM
same,GI50,SR leukemia,2.55 µM
same,TGI,SR leukemia,> 100 µM
same,GI50,SW-620 colon,6.55 µM
same,TGI,SW-620 colon,> 100 µM
same,GI50,T-47D breast,4.9 µM
same,TGI,T-47D breast,> 100 µM
same,GI50,TK-10 renal,30.4 µM
same,TGI,TK-10 renal,> 100 µM
same,GI50,U251 CNS,2.05 µM
same,TGI,U251 CNS,> 100 µM
same,GI50,UACC-257 melanoma,3.74 µM
same,TGI,UACC-257 melanoma,97.1 µM
same,GI50,UACC-62 melanoma,3.25 µM
same,TGI,UACC-62 melanoma,22.8 µM
same,GI50,UO-31 renal,0.863 µM
same,TGI,UO-31 renal,14.9 µM
